Measured values from patent publication US9918990B2, “Substituted pyrrolo[2,3-c]pyridines and pyrazolo[3,4-c]pyridines as BET protein inhibitors” (Incyte Corporation, priority 2013, dated 2018).
Where a name gives a salt, the structure may show the parent alone.

Tests used:
KMS.12.BM cells = experiment: KMS.12.BM cell viability assay (Cell Titer-GLO, ATP quantitation); format: cell-based; settings: Homo sapiens, 72 h, 3 days, concentration required for 50% cell death, read-out: KMS cellular IC50
Method: KMS.12.BM cell line (human myeloma) was purchased from JCRB (Osaka, Japan) and maintained in RPMI with 10% FBS culture medium. To measure the cytotoxic activity of the compounds through ATP quantitation, the KMS.12.BM cells are plated in the RPMI culture medium at 5000 cells/well/per 100 μL into a 96-well polystyrene clear black tissue culture plate (Greiner-bio-one through VWR, NJ), in the presence or absence of a concentration range of test compounds. After 3 days, […] Cell Titer-GLO Luminescent (Promega, Madison, Wis.) cell culture agent is added to each well for 10 minutes at room temperature to stabilize the luminescent signal. This determines the number of viable cells in culture based on quantitation of the ATP present, which signals the presence of metabolically active cells. Luminescence is measured with the Top Count 384 (Packard Bioscience through Perkin Elmer, Boston, Mass.). Compound inhibition is determined relative to cells cultured with no drug and the IC50 is reported as the compound concentration required for 50% cell death. IC50 data for the Examples is presented in Table 9 as determined by Assay B1.

BRD4-BD2 = BRD4-BD2 (Homo sapiens (Human), UniProt O60885); experiment: BRD4 AlphaScreen assay, BRD4-BD2; format: binding; settings: H4Ac4 peptide, 75 min, room temperature, read-out: BRD4 BD-2 enzyme IC50
Method: (§1) BRD4-BD1 and BRD4-BD2 assays were conducted in white 384-well polystyrene plate in a final volume of 20 μL for BD1 and 40 μL for BD2. Inhibitors were first serially diluted in DMSO and added to the plate wells before the addition of other reaction components. […] After plate sealing, the plate was incubated in the dark at room temperature for 75 min. before reading on a PHERAstar FS plate reader (BMG Labtech). IC50 determination was performed by fitting the curve of percent control activity versus the log of the inhibitor concentration using the GraphPad Prism 5.0 software.

BRD4-BD1 = BRD4-BD1 (Homo sapiens (Human), UniProt O60885); experiment: BRD4 AlphaScreen assay, BRD4-BD1; format: binding; settings: H4Ac4 peptide, 75 min, room temperature, read-out: BRD4 BD-1 enzyme IC50
Method: as §1

C-myc = experiment: KMS.12.BM C-myc ELISA assay; format: cell-based; settings: Homo sapiens; KMS.12.BM cells, 2 hours, concentration required for 50% C-myc inhibition
Method: KMS.12.BM cell line (human myeloma) was purchased from JCRB (Osaka, Japan) and maintained in RPMI with 10% FBS culture medium. To measure the C-myc inhibitory activity of the compounds, the KMS.12.BM cells are plated in the RPMI culture medium at 75000 cells/well/per 200 μL into a 96-well flat bottom polystyrene tissue culture plate (Corning through VWR, NJ), in the presence or absence of a concentration range of test compounds. After 2 hours, cell are pelleted and lysed with Cell Extraction Buffer (BioSource, Carlsbad, Calif.) in the presence of protease inhibitors (Life Technologies, Grand Island, N.Y. and Sigma, St Louis, Mo.). Clarified lyses are tested in a C-myc commercial ELISA (Life Technologies, Grand Island, N.Y.). Compound inhibition is determined relative to cells cultured with no drug and the IC50 is reported as the compound concentration required for 50% C-myc inhibition. IC50 data for the Examples is presented in Table 10 as determined by Assay C1.

With Cn1cc(-c2ccc3[nH]c(=O)[nH]c3c2Oc2ccc(F)cc2F)c2cc[nH]c2c1=O [Example 1, 4-(2,4-Difluorophenoxy)-5-(6-methyl-7-oxo-6,7-dihydro-1H-pyrrolo[2,3-c]pyridin-4-yl)-1,3-dihydro-2H-benzimidazol-2-one] the IC50 (KMS.12.BM cells) was no more than 1000 nM, the IC50 (BRD4-BD2) was less than 100 nM and the IC50 (BRD4-BD1) was less than 100 nM. For the same molecule, the IC50 (C-myc) was no more than 1000 nM.

Cn1cc(-c2ccc3[nH]c(=O)[nH]c3c2OC2CCC(F)(F)CC2)c2cc[nH]c2c1=O [Example 23, 4-[(4,4-Difluorocyclohexyl)oxy]-5-(6-methyl-7-oxo-6,7-dihydro-1H-pyrrolo[2,3-c]pyridin-4-yl)-1,3-dihydro-2H-benzimidazol-2-one] was tested, and the IC50 (KMS.12.BM cells) was no more than 1000 nM, the IC50 (BRD4-BD2) was less than 100 nM and the IC50 (BRD4-BD1) was less than 100 nM.

CN(C)C(=O)Cn1cnc2ccc(-c3cn(C)c(=O)c4[nH]ccc34)c(Oc3ccc(F)cc3F)c21 [Example 33, 2-[7-(2,4-Difluorophenoxy)-6-(6-methyl-7-oxo-6,7-dihydro-1H-pyrrolo[2,3-c]pyridin-4-yl)-1H-benzimidazol-1-yl]-N,N-dimethylacetamide] was tested, and the IC50 (KMS.12.BM cells) was no more than 1000 nM, the IC50 (BRD4-BD2) was less than 100 nM and the IC50 (BRD4-BD1) was less than 100 nM.

Work on CNC(=O)Cn1cnc2ccc(-c3cn(C)c(=O)c4[nH]ccc34)c(Oc3ccc(F)cc3F)c21 [Example 35, 2-[7-(2,4-Difluorophenoxy)-6-(6-methyl-7-oxo-6,7-dihydro-1H-pyrrolo[2,3-c]pyridin-4-yl)-1H-benzimidazol-1-yl]-N-methylacetamide] yielded an IC50 (KMS.12.BM cells) of no more than 1000 nM, an IC50 (BRD4-BD2) of less than 100 nM and an IC50 (BRD4-BD1) of less than 100 nM.

COc1c(-c2cn(C)c(=O)c3[nH]ccc23)ccc2c1n(Cc1ccccc1)c(=O)n2C [Example 44, 3-Benzyl-4-methoxy-1-methyl-5-(6-methyl-7-oxo-6,7-dihydro-1H-pyrrolo[2,3-c]pyridin-4-yl)-1,3-dihydro-2H-benzimidazol-2-one] was tested, and the IC50 (KMS.12.BM cells) was no more than 1000 nM, the IC50 (BRD4-BD2) was less than 100 nM and the IC50 (BRD4-BD1) was less than 100 nM.

COc1c(-c2cn(C)c(=O)c3[nH]ccc23)ccc2c1n(CCc1ccccc1)c(=O)n2C [Example 49, 4-Methoxy-1-methyl-5-(6-methyl-7-oxo-6,7-dihydro-1H-pyrrolo[2,3-c]pyridin-4-yl)-3-(2-phenylethyl)-1,3-dihydro-2H-benzimidazol-2-one] was tested, and the IC50 (KMS.12.BM cells) was no more than 1000 nM, the IC50 (BRD4-BD2) was less than 100 nM and the IC50 (BRD4-BD1) was 100 to 1000 nM.

Cn1cc(-c2ccc3c(c2OCC2CCC2)n(CCc2ccccc2)c(=O)n3C)c2cc[nH]c2c1=O [Example 63, 4-(Cyclobutylmethoxy)-1-methyl-5-(6-methyl-7-oxo-6,7-dihydro-1H-pyrrolo[2,3-c]pyridin-4-yl)-3-(2-phenylethyl)-1,3-dihydro-2H-benzimidazol-2-one] showed an IC50 (KMS.12.BM cells) of no more than 1000 nM, an IC50 (BRD4-BD2) of less than 100 nM and an IC50 (BRD4-BD1) of less than 100 nM.

Molecule Cn1cc(-c2ccc3c(c2OCC2CCC2)n(CCC2CCNCC2)c(=O)n3C)c2cc[nH]c2c1=O [Example 65, 4-(Cyclobutylmethoxy)-1-methyl-5-(6-methyl-7-oxo-6,7-dihydro-1H-pyrrolo[2,3-c]pyridin-4-yl)-3-(2-piperidin-4-ylethyl)-1,3-dihydro-2H-benzimidazol-2-one] has an IC50 (KMS.12.BM cells) of 1000 to 10000 nM, an IC50 (BRD4-BD2) of less than 100 nM and an IC50 (BRD4-BD1) of less than 100 nM.

Cn1cc(-c2ccc3c(c2OCC2CCC2)n(CCN2CCN(S(C)(=O)=O)CC2)c(=O)n3C)c2cc[nH]c2c1=O [Example 67, 4-(Cyclobutylmethoxy)-1-methyl-5-(6-methyl-7-oxo-6,7-dihydro-1H-pyrrolo[2,3-c]pyridin-4-yl)-3-{2-[4-(methylsulfonyl)piperazin-1-yl]ethyl}-1,3-dihydro-2H-benzimidazol-2-one] gave an IC50 (KMS.12.BM cells) of no more than 1000 nM, an IC50 (BRD4-BD2) of less than 100 nM and an IC50 (BRD4-BD1) of less than 100 nM.

Work on C[C@@H]1CN(CCn2c(NCC3CC3)nc3c(Oc4ccccc4)c(-c4cn(C)c(=O)c5[nH]ccc45)ccc32)C[C@H](C)O1 [Example 72, 4-(2-[(Cyclopropylmethyl)amino]-1-{2-[(2R,6S)-2,6-dimethylmorpholin-4-yl]ethyl}-4-phenoxy-1H-benzimidazol-5-yl)-6-methyl-1,6-dihydro-7H-pyrrolo[2,3-c]pyridin-7-one trifluoroacetate] yielded an IC50 (KMS.12.BM cells) of 1000 to 10000 nM, an IC50 (BRD4-BD2) of less than 100 nM and an IC50 (BRD4-BD1) of 100 to 1000 nM.

With Cn1cc(-c2cc(CNCCN3CCOCC3)c3[nH]c(=O)[nH]c3c2Oc2ccc(F)cc2F)c2cc[nH]c2c1=O [Example 79, 4-(2,4-Difluorophenoxy)-5-(6-methyl-7-oxo-6,7-dihydro-1H-pyrrolo[2,3-c]pyridin-4-yl)-7-{[(2-morpholin-4-ylethyl)amino]methyl}-1,3-dihydro-2H-benzimidazol-2-one] the IC50 (KMS.12.BM cells) was 1000 to 10000 nM, the IC50 (BRD4-BD2) was less than 100 nM and the IC50 (BRD4-BD1) was 100 to 1000 nM.

Work on Cn1cc(-c2cc(CNCc3ccccc3)c3[nH]c(=O)[nH]c3c2Oc2ccc(F)cc2F)c2cc[nH]c2c1=O [Example 80, 7-[(Benzylamino)methyl]-4-(2,4-difluorophenoxy)-5-(6-methyl-7-oxo-6,7-dihydro-1H-pyrrolo[2,3-c]pyridin-4-yl)-1,3-dihydro-2H-benzimidazol-2-one] yielded an IC50 (KMS.12.BM cells) of no more than 1000 nM, an IC50 (BRD4-BD2) of less than 100 nM and an IC50 (BRD4-BD1) of less than 100 nM.

Cn1cc(-c2cc(CNCC3CC3)c3[nH]c(=O)[nH]c3c2Oc2ccc(F)cc2F)c2cc[nH]c2c1=O [Example 81, 7-{[(Cyclopropylmethyl)amino]methyl}-4-(2,4-difluorophenoxy)-5-(6-methyl-7-oxo-6,7-dihydro-1H-pyrrolo[2,3-c]pyridin-4-yl)-1,3-dihydro-2H-benzimidazol-2-one] was tested, and the IC50 (KMS.12.BM cells) was no more than 1000 nM, the IC50 (BRD4-BD2) was less than 100 nM and the IC50 (BRD4-BD1) was 100 to 1000 nM.

Molecule CCn1cc(-c2ccc3c(ncn3C)c2Oc2ccc(F)cc2F)c2cc[nH]c2c1=O [Example 83, 4-[4-(2,4-Difluorophenoxy)-1-methyl-1H-benzimidazol-5-yl]-6-ethyl-1,6-dihydro-7H-pyrrolo[2,3-c]pyridin-7-one] has an IC50 (KMS.12.BM cells) of no more than 1000 nM, an IC50 (BRD4-BD2) of less than 100 nM and an IC50 (BRD4-BD1) of 100 to 1000 nM.

In the case of Cn1cc(-c2ccc3c(c2Oc2ccccc2)NC(=O)C(C)(C)O3)c2cc[nH]c2c1=O [Example 95, 2,2-Dimethyl-6-(6-methyl-7-oxo-6,7-dihydro-1H-pyrrolo[2,3-c]pyridin-4-yl)-5-phenoxy-2H-1,4-benzoxazin-3(4H)-one], the IC50 (KMS.12.BM cells) is reported as no more than 1000 nM, the IC50 (BRD4-BD2) is reported as less than 100 nM and the IC50 (BRD4-BD1) is reported as less than 100 nM.

Cn1cc(-c2ccc3c([nH]c(=O)n3C)c2Sc2ccccc2)c2cc[nH]c2c1=O [Example 97, 1-Methyl-5-(6-methyl-7-oxo-6,7-dihydro-1H-pyrrolo[2,3-c]pyridin-4-yl)-4-(phenylthio)-1,3-dihydro-2H-benzimidazol-2-one] showed an IC50 (KMS.12.BM cells) of no more than 1000 nM, an IC50 (BRD4-BD2) of less than 100 nM and an IC50 (BRD4-BD1) of less than 100 nM.

Work on CCSc1c(-c2cn(C)c(=O)c3[nH]ccc23)ccc2c1[nH]c(=O)n2C [Example 98, 4-(Ethylthio)-1-methyl-5-(6-methyl-7-oxo-6,7-dihydro-1H-pyrrolo[2,3-c]pyridin-4-yl)-1,3-dihydro-2H-benzimidazol-2-one] yielded an IC50 (KMS.12.BM cells) of no more than 1000 nM, an IC50 (BRD4-BD2) of less than 100 nM and an IC50 (BRD4-BD1) of less than 100 nM.

CN1C(=O)COc2ccc(-c3cn(C)c(=O)c4[nH]ccc34)c(Oc3ccccc3)c21 [Example 100, 4-Methyl-6-(6-methyl-7-oxo-6,7-dihydro-1H-pyrrolo[2,3-c]pyridin-4-yl)-5-phenoxy-2H-1,4-benzoxazin-3(4H)-one] gave an IC50 (KMS.12.BM cells) of no more than 1000 nM, an IC50 (BRD4-BD2) of less than 100 nM and an IC50 (BRD4-BD1) of 100 to 1000 nM.

Cn1cc(-c2ccc3c(nc(CNC(=O)C4CCC4)n3C)c2Oc2ccccc2)c2cc[nH]c2c1=O [Example 111, N-{[1-Methyl-5-(6-methyl-7-oxo-6,7-dihydro-1H-pyrrolo[2,3-c]pyridin-4-yl)-4-phenoxy-1H-benzimidazol-2-yl]methyl}cyclobutanecarboxamide] showed an IC50 (KMS.12.BM cells) of no more than 1000 nM, an IC50 (BRD4-BD2) of less than 100 nM and an IC50 (BRD4-BD1) of less than 100 nM.

Cn1cc(-c2ccc3c(nc(CNC(=O)C4CC4)n3C)c2Oc2ccccc2)c2cc[nH]c2c1=O [Example 112, N-{[1-Methyl-5-(6-methyl-7-oxo-6,7-dihydro-1H-pyrrolo[2,3-c]pyridin-4-yl)-4-phenoxy-1H-benzimidazol-2-yl]methyl}cyclopropanecarboxamide] gave an IC50 (KMS.12.BM cells) of no more than 1000 nM, an IC50 (BRD4-BD2) of less than 100 nM and an IC50 (BRD4-BD1) of less than 100 nM.
